Legend:
[1] = tested on: cholesterol absorption (uptake of ^14C-cholesterol by the liver); test: Cholesterol absorption test: uptake of 14C-cholesterol by the liver after peroral test meal; assay type: in vivo, NMRI mice; conditions: dose at which uptake of 14C-cholesterol by the liver is halved vs control group, mouse
Source text: Effect on Cholesterol Absorption+^3H-taurocholic Acid Excretion Using Fecal Excrement of Mice, Rats or Hamsters
NMRI mice, Wistar rats, or Golden Syrian hamsters (in groups of n=4-6) are kept in metabolic cages, where they are fed with a standard diet (Altromin, Lage (Lippe)). The afternoon prior to the administration of the radioactive tracers (^14C-cholesterol), the feed is removed and the animals are adapted to grates.
Additionally, the animals are labeled s.c. with ^3H-TCA (taurocholic acid) (for example 1 μCi/mouse up to 5 μCi/rat) 24 hours prior to the peroral administration of the test meal (^14C-cholesterol in Intralipid® 20, Pharmacia-Upjohn).
Cholesterol absorption test: 0.25 ml/mouse Intralipid® 20 (Pharmacia-Upjohn) ((spiked with 0.25 μCi of ^14C-cholesterol in 0.1 mg of cholesterol) is administered perorally by gavage.
Test substances are prepared separately in 0.5% methylcellulose (Sigma)/5% Solutol (BASF, Ludwigshafen) or a suitable vehicle.
The administration volume of the test substance is 0.5 ml/mouse. The test substance is administered immediately prior to the test meal (Intralipid labeled with ^14C-cholesterol) (cholesterol absorption test).
The feces are collected over a period of 24 h: fecal elimination of ^14C-cholesterol and ^3H-taurocholic acid (TCA) is determined after 24 hours.
The livers are removed and homogenized, and aliquots are incinerated in an oximate (Model 307, Packard) to determine the amount of ^14C-cholesterol which had been taken up/absorbed.
The amount of ^14C-cholesterol taken up by the liver is based on the administered dose. The ED50 values are interpolated from a dose-effect curve as the dose at which the uptake of ^14C-cholesterol by the liver is halved (50%), based on a control group.

[2] = tested on: Caco-2 cell monolayers; test: Bioabsorption in the Caco cell model (Hilgers et al.); assay type: in vitro ADME; conditions: estimated from Caco cell model
Source text: The bioabsorption of the compounds of the formula I can be examined using the Caco cell model (A. R. Hilgers et al., Caco-2 cell monolayers as a model for drug transport across the intestinal mucosa, Pharm. Res. 1990, 7, 902).
Below is a bioabsorption measurement for a reference compound

| Structure (SMILES) | ED50 (liver) [1] [mg/mouse] | Estimated human bioabsorption [2] [%] |
| --- | --- | --- |
| O=C(COCCOCCOCC(=O)Nc1ccccc1C(Nc1ccccn1)C(c1ccccn1)C(O)c1ccccc1)NCc1cccc(C2C(CCC(O)c3ccc(F)cc3)C(=O)N2c2ccc(F)cc2)c1.O=C(O)C(F)(F)F (stereo not shown) [XVIII, (1-{2-[2-(2-{2-[(3-{1-(4-Fluorophenyl)-3-[3-(4-fluorophenyl)-3-hydroxypropyl]-4-oxoazetidin-2-yl}benzylcarbamoyl)methoxy]ethoxy}ethoxy)acetylamino]phenyl}-3-hydroxy-3-phenyl-2-pyridin-2-ylpropyl)pyridin-2-ylammonium trifluoroacetate] | 0.3 |  |
| O=C(CCCCCCCCCCC(=O)Nc1ccccc1C(Nc1ccccn1)C(c1ccccn1)C(O)c1ccccc1)NCc1cccc(C2C(CCC(O)c3ccc(F)cc3)C(=O)N2c2ccc(F)cc2)c1.O=C(O)C(F)(F)F (stereo not shown) [XVI, (1-{2-[11-(3-{1-(4-Fluorophenyl)-3-[3-(4-fluorophenyl)-3-hydroxypropyl]-4-oxoazetidin-2-yl}benzylcarbamoyl)undecanoylamino]phenyl}-3-hydroxy-3-phenyl-2-pyridin-2-ylpropyl)pyridin-2-yl ammonium trifluoroacetate] | 0.03 |  |
| O=C1[C@H](CC[C@H](O)c2ccc(F)cc2)[C@@H](c2ccc(O)cc2)N1c1ccc(F)cc1 [Ezetimibe] |  | 100 |
| O=C(COCCOCC(=O)Nc1ccccc1C(Nc1ccccn1)C(c1ccccn1)C(O)c1ccccc1)NCc1ccc(C2C(CCC(O)c3ccc(F)cc3)C(=O)N2c2ccc(F)cc2)cc1.O=C(O)C(F)(F)F (stereo not shown) [XIX, {1-[2-(2-{2-[(4-{1-(4-Fluorophenyl)-3-[3-(4-fluorophenyl)-3-hydroxypropyl]-4-oxoazetidin-2-yl}benzylcarbamoyl)methoxy]ethoxy}acetylamino)phenyl]-3-hydroxy-3-phenyl-2-pyridin-2-ylpropyl}pyridin-2-ylammonium trifluoroacetate] | 0.1 |  |

Reference: patent US6703386B2, “Diphenylazetidinone derivatives, process for their preparation, medicaments comprising these compounds and their use” (Aventis Pharma Deutschland GmbH, priority 2000, dated 2004)
